In patent US11958826B1, “6′-(2-chlorophenyl)-2′-ethoxy-3,4′-bipyridine-3′- carbonitrile as an antimicrobial compound” (KING FAISAL UNIVERSITY, priority 2023, dated 2024):

Assays:
Staphylococcus aureus = test: Agar plate disc-diffusion, antibacterial activity by inhibition zone; type: cell-based; details: Staphylococcus aureus (Gram positive)
Protocol: (§1) The agar plate disc-diffusion method was applied. […] The discs were then placed onto the surface of agar plates (nutrient agar for bacteria and Sabouraud's dextrose agar for fungi) seeded with the test organism. Each plate contained 15 ml of the agar medium, previously seeded with 0.2 mL of the broth culture of each organism pregrown for 18 hours. The plates were incubated at 37° C. for 48 hours and 72 hours for fungi. The inhibition zones were measured in mm. Discs impregnated with DMSO were used as a control, and their inhibition zone was subtracted from the tested compound's actual inhibition zone.
(§2) The results of the antimicrobial testing can be observed in Tables 1 and 2, below, with ciprofloxacin serving as a reference.

Escherichia coli = test: as above; type: cell-based; details: Escherichia coli (Gram negative)
Protocol: as §1, §2

Bacillus Cereus = test: as above; type: cell-based; details: Bacillus Cereus (Gram positive)
Protocol: as §1, §2

Pseudomonas aeruginosa = test: as above; type: cell-based; details: Pseudomonas aeruginosa (Gram negative)
Protocol: as §1, §2

[1] = system: Chrysosporium keratinophilum; test: Agar plate disc-diffusion, antifungal activity by inhibition zone; type: cell-based
Protocol: as §1, §2

Aspergillus flavus = test: as above; type: cell-based
Protocol: as §1, §2

[2] = A = concentration of comp. = 10,000 μL
[3] = B = concentration of comp. = 30.000 μL
[4] = C = concentration of comp. = 50,000 μL

**Q.** Which results are given for CCOc1nc(-c2ccccc2Cl)cc(-c2cccnc2)c1C#N [Compound 4, 6′-(2-chlorophenyl)-2′-ethoxy-3,4′-bipyridine-3′-carbonitrile]?
**A.** inhibition zone (Staphylococcus aureus; [2]): 18 mm; inhibition zone (Staphylococcus aureus; [3]): 24 mm; inhibition zone (Staphylococcus aureus; [4]): 36 mm; inhibition zone (Escherichia coli; [2]): 26 mm; inhibition zone (Escherichia coli; [3]): 28 mm; inhibition zone (Escherichia coli; [4]): 40 mm; inhibition zone (Bacillus Cereus; [2]): 25 mm; inhibition zone (Bacillus Cereus; [3]): 27 mm; inhibition zone (Bacillus Cereus; [4]): 39 mm; inhibition zone (Pseudomonas aeruginosa; [2]): 25 mm; inhibition zone (Pseudomonas aeruginosa; [3]): 27 mm; inhibition zone (Pseudomonas aeruginosa; [4]): 38 mm; inhibition zone [1, 2]: 25 mm; inhibition zone [1, 3]: 27 mm; inhibition zone [1, 4]: 44 mm; inhibition zone (Aspergillus flavus; [2]): 20 mm; inhibition zone (Aspergillus flavus; [3]): 24 mm; inhibition zone (Aspergillus flavus; [4]): 35 mm; melting point: 156 to 158 °C
